Measurements published in PMC6256987, “Investigating the Activity Spectrum for Ring-Substituted 8-Hydroxyquinolines” (Molecules, 2010).
In brackets after ≈: the same amount, converted by molar mass. Where two headings read alike, the source gives them in different places.

What was measured:
[1] = Lipophilicity determination by RP-HPLC (capacity factor k / log k); type: physicochemical; settings: C18 column, isocratic MeOH 55.0% / H2O 45.0%
Description: A Waters Alliance 2695 XE HPLC separation module and Waters Photodiode Array Detector 2996 (Waters Corp., Milford, MA, USA) were used. A Symmetry® C18 5 μm, 4.6 × 250 mm, Part No. WAT054275, (Waters Corp., Milford, MA, USA) chromatographic column was used. The HPLC separation process was monitored by Millennium32® Chromatography Manager Software, Waters 2004 (Waters Corp., Milford, MA, USA). A mixture of MeOH p.a. (55.0%) and H2O-HPLC– Mili-Q Grade (45.0%) was used as a mobile phase. The total flow of the column was 0.9 mL/min, injection 30 μL, column temperature 30 °C and sample temperature 10 °C. The detection wavelength 210 nm was chosen. The KI methanolic solution was used for the dead time (tD) determination. Retention times (tR) were measured in minutes.
The capacity factors k were calculated using the Millennium32® Chromatography Manager Software according to formula k = (tR - tD)/tD, where tR is the retention time of the solute, whereas tD denotes the dead time obtained via an unretained analyte. Log k, calculated from the capacity factor k, is used as the lipophilicity index converted to log P scale.

[2] = test system: photosynthetic electron transport (PET) in spinach chloroplasts; assay: Inhibition of photosynthetic electron transport (PET) in spinach chloroplasts, DCPIP photoreduction; type: biochemical, Spinacia oleracea L.; settings: DCPIP as electron acceptor, phosphate buffer pH 7.2, read-out: PET reduction IC50
Procedure: Chloroplasts were prepared from spinach (Spinacia oleracea L.) according to Masarovicova and Kralova. The inhibition of photosynthetic electron transport (PET) in spinach chloroplasts was determined spectrophotometrically (Genesys 6, Thermo Scientific, USA) using an artificial electron acceptor 2,6-dichlorophenol-indophenol (DCIPP) according to Kralova et al. and the rate of photosynthetic electron transport was monitored as a photoreduction of DCPIP. The measurements were carried out in phosphate buffer (0.02 mol/L, pH 7.2) containing sucrose (0.4 mol/L), MgCl2 (0.005 mol/L) and NaCl (0.015 mol/L). The chlorophyll content was 30 mg/L in these experiments and the samples were irradiated (~100 W/m^2) from 10 cm distance with a halogen lamp (250 W) using a 4 cm water filter to prevent warming of the samples (suspension temperature 22 °C). The studied compounds were dissolved in DMSO due to their limited water solubility. […] The inhibitory efficiency of the studied compounds was expressed by IC50 values, i.e., by molar concentration of the compounds causing 50% decrease in the oxygen evolution rate relative to the untreated control.

[3] = test system: Candida albicans ATCC 44859; assay: In vitro antifungal broth microdilution test; type: cell-based; settings: 35 °C, RPMI 1640 pH 7.0, CLSI M27-A2 (IC80 value); for MIC: Candida albicans, ATCC44859
Candida tropicalis 156 = assay: In vitro antifungal broth microdilution test; type: cell-based; settings: 35 °C, RPMI 1640 pH 7.0, CLSI M27-A2 (IC80 value); for MIC: Candida tropicalis, 156
Candida krusei ATCC 6258 = assay: In vitro antifungal broth microdilution test; type: cell-based; settings: 35 °C, RPMI 1640 pH 7.0, CLSI M27-A2 (IC80 value); for MIC: Pichia kudriavzevii, ATCC6258
Candida glabrata 20/I = assay: In vitro antifungal broth microdilution test; type: cell-based; settings: 35 °C, RPMI 1640 pH 7.0, CLSI M27-A2 (IC80 value); for MIC: Nakaseomyces glabratus, 20/I
[4] = test system: Trichosporon beigelii 1188; assay: In vitro antifungal broth microdilution test; type: cell-based
Procedure: Fluconazole (FLU) was used as the standard of a clinically used antimycotic drug. The procedure was performed with twofold dilution of the compounds in RPMI 1640 (Sevapharma a.s., Prague, Czech Republic) buffered to pH 7.0 with 0.165 mol of 3-morpholino-propane-1-sulfonic acid (MOPS, Sigma, Germany). The final concentrations of the compounds ranged from 500 to 0.975 μmol/L. Drug–free controls were included. The MIC determination was performed according to the CLSI (formerly NCCLS) reference protocol M27-A2 for yeasts (IC80 value) and M38-A for moulds (IC50 value). […] The values of MICs were determined after 24 and 48 h of static incubation at 35 °C. For T. mentagrophytes, the final MICs were determined after 72 and 120 h of incubation.

[5] = test system: Aspergillus fumigatus 231; assay: In vitro antifungal broth microdilution test; type: cell-based; settings: 35 °C, RPMI 1640 pH 7.0, CLSI M38-A (IC50 value); for MIC: Aspergillus fumigatus, 231
Absidia corymbifera 272 = assay: In vitro antifungal broth microdilution test; type: cell-based; settings: 35 °C, RPMI 1640 pH 7.0, CLSI M38-A (IC50 value); for MIC: Lichtheimia corymbifera, 272
[6] = test system: Trichophyton mentagrophytes 445; assay: In vitro antifungal broth microdilution test; type: cell-based
[7] = Trichosporon beigelii, 1188, 24h, 35 °C, RPMI 1640 pH 7.0, CLSI M27-A2 (IC80 value), read-out: MIC TB
[8] = Trichosporon beigelii, 1188, 48h, 35 °C, RPMI 1640 pH 7.0, CLSI M27-A2 (IC80 value), read-out: MIC TB
[9] = Trichophyton mentagrophytes, 445, 120 h, pH 7
[10] = Trichophyton mentagrophytes, 445, 72h, RPMI 1640 pH 7.0, CLSI M38-A (IC50 value)

Compound	log k [1]	IC50 [2] [µM]	MIC ([3]; 24h) [µM]	MIC ([3]; 48h) [µM]	MIC (Candida tropicalis 156; 24h) [µM]	MIC (Candida tropicalis 156; 48h) [µM]	MIC (Candida krusei ATCC 6258; 24h) [µM]	MIC (Candida krusei ATCC 6258; 48h) [µM]	MIC (Candida glabrata 20/I; 24h) [µM]	MIC (Candida glabrata 20/I; 48h) [µM]	MIC [4, 7] [µM]	MIC [4, 8] [µM]	MIC ([5]; 24h) [µM]	MIC ([5]; 48h) [µM]	MIC (Absidia corymbifera 272; 24h) [µM]	MIC (Absidia corymbifera 272; 48h) [µM]	MIC [6, 9] [µM]	MIC [6, 10] [µM]	further results
8-Hydroxyquinoline-5-sulfonic acid isobutylamide [Compound 5]	0.3373	54.4																	MIC CA ([3]; 24h): 125 µM; MIC CA ([3]; 48h): 250 µM; MIC CT (Candida tropicalis 156; 24h): 250 µM; MIC CT (Candida tropicalis 156; 48h): 250 µM; MIC CK (Candida krusei ATCC 6258; 24h): 250 µM; MIC CK (Candida krusei ATCC 6258; 48h): 250 µM; MIC CG (Candida glabrata 20/I; 24h): 125 µM; MIC CG (Candida glabrata 20/I; 48h): 250 µM; MIC TB ([4]; 24h, 35 °C, RPMI 1640 pH 7.0, CLSI M27-A2 (IC80 value)): 250 µM; MIC TB ([4]; 48h, 35 °C, RPMI 1640 pH 7.0, CLSI M27-A2 (IC80 value)): 500 µM; MIC AF ([5]; 24h): 250 µM; MIC AF ([5]; 48h): 250 µM; MIC AC (Absidia corymbifera 272; 24h): 125 µM; MIC AC (Absidia corymbifera 272; 48h): 125 µM; MIC TM ([6]; 72h, RPMI 1640 pH 7.0, CLSI M38-A (IC50 value)): 62.50 µM; MIC TM ([6]; 120h, RPMI 1640 pH 7.0, CLSI M38-A (IC50 value)): 125 µM
O=[N+]([O-])c1ccc(O)c2ncccc12 [Compound 1, 5-Nitroquinolin-8-ol]	0.5695	78	> 500	> 500	> 500	> 500	> 500	> 500	> 500	> 500	> 500	> 500	> 500	> 500	> 500	> 500	> 500	> 500	
O=[N+]([O-])c1cc(S(=O)(=O)O)c2cccnc2c1O [Compound 2, 8-Hydroxy-7-nitroquinoline-5-sulfonic acid]	0.1479		> 250	> 250	> 250	> 250	> 250	> 250	> 250	> 250	> 250	> 250	> 250	> 250	> 250	> 250	> 250	> 250	
O=S(=O)(O)c1cc(Br)c(O)c2ncccc12 [Compound 3, 7-Bromo-8-hydroxyquinoline-5-sulfonic acid]	0.3786	33.5	0.77 (≈ 0.234 µg/mL)	1.95 (≈ 0.593 µg/mL)	1.95 (≈ 0.593 µg/mL)	3.9 (≈ 1.19 µg/mL)	3.9 (≈ 1.19 µg/mL)	3.9 (≈ 1.19 µg/mL)	1.95 (≈ 0.593 µg/mL)	3.9 (≈ 1.19 µg/mL)		3.9 (≈ 1.19 µg/mL)	0.77 (≈ 0.234 µg/mL)	1.95 (≈ 0.593 µg/mL)	7.8 (≈ 2.37 µg/mL)	7.8 (≈ 2.37 µg/mL)	1.95 (≈ 0.593 µg/mL)	1.95 (≈ 0.593 µg/mL)	MIC ([4]; Trichosporon beigelii, 1188, 24 h, pH 7, read-out: MIC TB): 3.9 µM (≈ 1.19 µg/mL)
O=S(=O)(c1ccc(O)c2ncccc12)N1CCOCC1 [Compound 4, 5-(Morpholine-4-sulfonyl)quinolin-8-ol]	0.3293		125 (≈ 36.8 µg/mL)	500 (≈ 147 µg/mL)	500 (≈ 147 µg/mL)	500 (≈ 147 µg/mL)	250 (≈ 73.6 µg/mL)	500 (≈ 147 µg/mL)	500 (≈ 147 µg/mL)	500 (≈ 147 µg/mL)	500 (≈ 147 µg/mL)	500 (≈ 147 µg/mL)	500 (≈ 147 µg/mL)	500 (≈ 147 µg/mL)	125 (≈ 36.8 µg/mL)	250 (≈ 73.6 µg/mL)	250 (≈ 73.6 µg/mL)	250 (≈ 73.6 µg/mL)	
O=S(=O)(NCCc1ccccc1)c1ccc(O)c2ncccc12 [Compound 6, 8-Hydroxyquinoline-5-sulfonic acid (2-phenylethyl)amide]	0.3349	304	125 (≈ 41 µg/mL)	125 (≈ 41 µg/mL)	125 (≈ 41 µg/mL)	125 (≈ 41 µg/mL)	125 (≈ 41 µg/mL)	125 (≈ 41 µg/mL)	125 (≈ 41 µg/mL)	125 (≈ 41 µg/mL)	125 (≈ 41 µg/mL)	125 (≈ 41 µg/mL)	125 (≈ 41 µg/mL)	125 (≈ 41 µg/mL)	125 (≈ 41 µg/mL)	125 (≈ 41 µg/mL)	125 (≈ 41 µg/mL)	125 (≈ 41 µg/mL)	
O=S(=O)(NCCCCc1ccccc1)c1ccc(O)c2ncccc12 [Compound 7, 8-Hydroxyquinoline-5-sulfonic acid (4-phenylbutyl)amide]	0.3902	616	> 125	> 125	> 125	> 125	> 125	> 125	> 125	> 125	> 125	> 125	> 125	> 125	> 125	> 125	> 125	> 125	
CC(=O)Nc1ccc2cccc(OC(C)=O)c2n1 [Compound 8, 2-Acetylaminoquinolin-8-yl acetate]	0.3583	306	15.6	62.5	31.2	31.2	62.5	62.5	31.2	62.5	62.5	125	62.5	62.5	62.5	62.5	62.5	62.5	
Oc1ccccc1C=Cc1ccc2c(Cl)cc(Cl)c(O)c2n1 [Compound 9, 5,7-Dichloro-2-[2-(2-hydroxyphenyl)vinyl]quinolin-8-ol]	1.5854																		
OC(Cn1cncn1)(Cn1cncn1)c1ccc(F)cc1F [FLU, fluconazole, reference compound]			0.06 (≈ 0.0184 µg/mL)	0.12 (≈ 0.0368 µg/mL)	0.12 (≈ 0.0368 µg/mL)	> 125	3.91 (≈ 1.2 µg/mL)	15.6 (≈ 4.78 µg/mL)	0.98 (≈ 0.3 µg/mL)	3.91 (≈ 1.2 µg/mL)	0.24 (≈ 0.0735 µg/mL)	0.48 (≈ 0.147 µg/mL)	> 125	> 125	> 125	> 125	3.91 (≈ 1.2 µg/mL)	1.95 (≈ 0.597 µg/mL)	
